Patent US20160000762A1, “IMPROVING COGNITIVE FUNCTION” (THE REGENTS OF THE UNIVERSITY OF CALIFORNIA, priority 2013, published 2016)

Experiments:
soluble Aβ 40 = test: Aβ ELISA, 3× Tg AD mice; format: in vivo; settings: 30 mg/kg daily, 2 weeks
Experimental: (§1) Aβ ELISA. Mouse brains were homogenized in tissue homogenization buffer containing 250 mM sucrose, 20 mM Tris base, protease, and phosphatase inhibitors. To measure soluble Aβ, DEA extraction was performed. Crude 10% homogenate was mixed with an equal volume of 0.4% diethylamine (DEA), sonicated, and ultracentrifuged for 1 hr at 100,000×g. The supernatant was collected and neutralized with 10% 0.5 M Tris, pH 6.8. Sensitive and specific ELISAs to rodent Aβ1-40 was purchased from IBL Transatlantic (Toronto, Canada) and conducted per the manufacturer's protocol.

APP = test system: T1, APP; test: Live cell surface immunostaining, primary hippocampal neurons; format: cell-based, Sprague-Dawley rats; settings: 5 μM, 24 h
T1 construct: expressed in transfected cells; host or cells: primary hippocampal neurons from E19 Sprague-Dawley rats
Experimental: Primary neuron culture and immunostaining. Primary hippocampal neurons from E19 Sprague-Dawley rats were cultured at 150 cells/mm^2 as previously described (Pak et al., 2001). Neurons were transfected using Lipofectamine™ 2000 (Invitrogen, Carlsbad, Calif., USA) or calcium phosphate precipitation with GFP+PLL, GFP+APP shRNA, or GFP+APP and treated with BTA-EG4. The following antibodies were used: mouse anti-GFP (Novus Biologicals, 9F9.F9), rabbit anti-GFP (Invitrogen, A11122), rabbit anti-GluR1 (Calbiochem, PC246), mouse anti-GluR2 (BD Pharmagen, 556341), mouse anti-postsynaptic density (PSD)-95 (NeuroMabs, Davis, Calif., USA), mouse anti-Synaptophysin (Sigma Aldrich, s5768), rabbit APP N-terminal (Sigma-Aldrich, A8967), anti-Ras (BD Biosciences, 610001), anti-RasGRF1 (Santa Cruz, C-20; BD Biosciences, 610149), anti-ERK1/2 (Cell Signaling, 4695), anti-p-ERK1/2 (Invitrogen, 36880), anti-CREB (Cell Signaling, D76D11), anti-p-CREB (Millipore, 06-519), and mouse anti-c-Myc (Novus Biologicals, 9E10). Cultured hippocampal neuron images were acquired by LSM 510 laser scanning confocal microscope (Zeiss). Confocal zseries image stacks encompassing entire dendrite segments were analyzed using MetaMorph software (Universal Imaging Corporation, Downington, Pa., USA).
Live cell surface immunostaining. […] Surface-labeled APP was detected with ALEXA FLUORO-555 secondary antibodies. […]

Aβ = Aβ ELISA, conditioned media of primary cortical neurons; format: cell-based; settings: 1 or 5 μM, 24 h, vs control (10% DMSO)
Experimental: as §1
To test whether BTA-EG4 alters Aβ production in vitro, primary cortical neurons were treated with BTA-EG4 (1 or 5 μM) or control (10% DMSO), and Aβ levels were measured using ELISA. […] We then examined whether BTA-EG4 can alter Aβ levels in vivo by injecting wild-type mice daily for 2 weeks with BTA-EG4 (15 or 30 mg/kg, 10% DMSO in saline, i.p.). […] Furthermore, BTA-EG4 altered APP processing in vivo, as monitored by increased sAPPα (α-secretase cleavage product) and decreased sAPPβ (β-secretase cleavage product) levels in BTA-EG4 injected wild-type mice (30 mg/kg, i.p) compared to control-injected mice (FIGS. 1E, 1F).

[1] = Tolerability of daily i.p. injections with necropsy; format: in vivo, wild-type mice; settings: ≦50 mg/kg i.p. daily, 16 days
[2] = test system: insulin-degrading enzyme (IDE), neprilysin (NPE); test: Levels of Aβ degradation enzymes (data not shown)

T1 sequence (P05067 18-770): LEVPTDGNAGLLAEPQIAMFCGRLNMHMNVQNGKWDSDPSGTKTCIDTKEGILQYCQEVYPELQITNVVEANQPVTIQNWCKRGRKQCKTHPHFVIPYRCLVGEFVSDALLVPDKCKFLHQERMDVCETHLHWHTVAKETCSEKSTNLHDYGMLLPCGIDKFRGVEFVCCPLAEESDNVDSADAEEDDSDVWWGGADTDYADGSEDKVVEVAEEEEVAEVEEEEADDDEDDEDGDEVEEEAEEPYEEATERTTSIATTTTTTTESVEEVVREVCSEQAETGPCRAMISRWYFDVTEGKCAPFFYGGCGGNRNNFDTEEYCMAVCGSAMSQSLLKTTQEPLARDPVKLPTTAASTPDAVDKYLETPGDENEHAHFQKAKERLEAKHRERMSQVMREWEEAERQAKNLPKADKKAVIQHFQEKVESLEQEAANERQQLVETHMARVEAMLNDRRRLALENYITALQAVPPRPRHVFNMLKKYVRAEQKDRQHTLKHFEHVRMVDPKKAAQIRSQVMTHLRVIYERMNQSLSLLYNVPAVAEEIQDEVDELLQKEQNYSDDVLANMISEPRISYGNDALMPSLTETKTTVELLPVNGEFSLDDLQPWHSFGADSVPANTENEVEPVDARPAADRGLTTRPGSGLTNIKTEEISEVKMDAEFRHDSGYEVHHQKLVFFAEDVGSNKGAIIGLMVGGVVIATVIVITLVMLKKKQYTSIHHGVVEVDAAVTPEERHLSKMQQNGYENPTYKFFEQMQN

BTA-EG4
soluble Aβ 40 levels (soluble Aβ 40; 2-3 months): decrease
soluble Aβ 40 level (soluble Aβ 40; 6-10 months): without changes
soluble Aβ 40 level (soluble Aβ 40; 13-16 months): none of the measured parameters were significantly altered
cell surface levels of APP (APP): increased
total levels of APP (APP): without affecting
Aβ protein levels (Aβ): significantly decreased
necropsy findings [1]: no adverse effects on major organs
tolerability of daily injections [1]: well tolerated
levels of Aβ degradation enzymes (IDE, NPE) [2]: did not alter
